Test results taken from article PMC4406878 (Pharmaceutical research, 2011).

System: PSMA
Conditions: 2 nM DHT, 48 h, 5% charcoal-stripped FBS RPMI-1640, Western blot

C[C@]12CCC(=O)C[C@@H]1CC[C@@H]1[C@@H]2CC[C@]2(C)[C@@H](O)CC[C@@H]12 [DHT, 5-α-dihydrotestosterone]
PSMA expression in LNCaP cells: substantially inhibited
